Like-named read-outs stand apart in the source and are kept apart here.

Data set [1] has as its system SMMC-7721 cells. The data set is described as follows: MTT cytotoxicity assay, SMMC-7721. It counts as cell-based, human. Particulars: Homo sapiens, SMMC-7721, 48 h, 48 h exposure. The protocol: (§1) The in vitro cytotoxic activities of synthesized compounds were evaluated against two human hepatocarcinoma cell lines (SMMC-7721 and HepG2) and the human normal hepatocyte cell line (LO2) via MTT assay. All tested compounds were dissolved in DMSO and the stock solutions were diluted by DMEM medium before treatment of the cultured cells. […] Cell lines were obtained from American Tissue Culture Collection (ATCC). Briefly, different tumor cells were grown in DMEM medium supplemented with 10% fetal bovine serum, penicillin (100 U/mL), and streptomycin (50 μg/mL). Cells were harvested at log phase of growth and seeded in 96-well plates (100 μL/well at a density of 2 × 10^5 cells/mL). After 24 h incubation at 37 °C and 5% CO2 to allow cell attachment, cultures were exposed to various concentrations of the isolated compounds for 48 h. Finally, MTT solution (2.5 mg/mL in PBS) was added (40 μL/well). Plates were further incubated for 4 h at 37 °C, and the formazan crystals formed were dissolved by adding 150 μL/well of DMSO. Absorption at 570 nm was measured with an ELISA plate reader. […] Doxorubicin, camptothecin, and etoposide (VP-16) were co-assayed as positive controls.

Another data set concerns LO2 cells. The data set is described as follows: MTT cytotoxicity assay, normal hepatocyte LO2. Particulars: Homo sapiens, L02, 48 h exposure, normal hepatocyte cell line. It counts as cell-based. As for the experimental part: as §1
A further data set concerns the target T1, DNA topoisomerase I (Bos taurus, UniProt F1MN93).
T1 construct: purchased TaKaRa, Kyoto, Japan
T1 sequence (F1MN93 1-767): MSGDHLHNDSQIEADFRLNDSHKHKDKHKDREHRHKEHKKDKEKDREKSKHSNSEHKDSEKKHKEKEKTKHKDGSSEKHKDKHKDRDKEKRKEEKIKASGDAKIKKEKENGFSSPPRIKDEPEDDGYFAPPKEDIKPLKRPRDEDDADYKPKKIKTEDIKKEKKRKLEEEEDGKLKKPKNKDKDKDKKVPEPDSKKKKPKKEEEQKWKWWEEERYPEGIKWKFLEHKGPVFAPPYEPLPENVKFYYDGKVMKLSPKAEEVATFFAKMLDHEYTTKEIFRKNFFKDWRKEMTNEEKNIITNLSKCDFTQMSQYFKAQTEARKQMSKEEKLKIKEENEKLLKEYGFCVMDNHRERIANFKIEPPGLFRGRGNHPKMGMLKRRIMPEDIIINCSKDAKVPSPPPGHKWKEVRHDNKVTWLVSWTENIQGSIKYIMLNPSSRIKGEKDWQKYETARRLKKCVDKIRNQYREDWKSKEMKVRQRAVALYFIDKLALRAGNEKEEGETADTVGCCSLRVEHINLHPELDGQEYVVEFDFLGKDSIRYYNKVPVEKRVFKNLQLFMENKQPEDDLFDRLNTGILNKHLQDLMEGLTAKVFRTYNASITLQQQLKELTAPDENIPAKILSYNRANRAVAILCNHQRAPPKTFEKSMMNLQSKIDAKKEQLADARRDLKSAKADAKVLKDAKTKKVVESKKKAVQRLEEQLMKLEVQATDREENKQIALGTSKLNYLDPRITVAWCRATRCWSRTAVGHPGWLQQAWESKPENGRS
The data set can be described thus: Topoisomerase I relaxation assay (supercoiled pBR322). It counts as biochemical. Particulars: for inhibition at 100 µM: 100 μM compound, read-out: Topo I Inhibition (%) 100 μM. As for the experimental part: The effect of the tested compounds on Topo I and II activities were evaluated by Topo I/II relaxation assays. The reaction products, relaxed DNA could be distinguished from supercoiled DNA by gel electrophoresis and visualized using gel imaging system. The activity of DNA topoisomerase I (TaKaRa, Kyoto, Japan) was determined by measuring the relaxation of supercoiled DNA pBR322 [32]. Camptothecin was used as a positive control. The reaction mixture was prepared according to the manufacture's protocol, and incubated at 37 °C for 30 min. The reactions were terminated by adding dye solution containing 1% SDS, 0.02% bromophenol blue and 50% glycerol. The mixtures were applied to 1% agarose gel and subjected to electrophoresis for 1 h, in 1× TAE buffer (40 mM Tris-acetate, 1 mM EDTA). Gels were stained for 30 min in 60 mL 1× TAE buffer with ethidium bromide (0.5 μg/mL). DNA bands were visualized by transillumination with UV light and then photographed by a Gel Doc XR+ System (BIO-RAD, Hercules, CA, USA).

Another data set deals with T2, Human Topoisomerase IIα (Homo sapiens, UniProt P11388).
T2 construct: purchased USB, Affymetrix, Waltham, MA, USA
The data set is described as follows: Topoisomerase II relaxation assay (supercoiled pBR322). It counts as biochemical. Particulars: for inhibition at 20 µM: 20 μM compound, read-out: Topo II Inhibition (%) 20 μM; for inhibition at 100 µM: 100 μM compound, read-out: Topo II Inhibition (%) 100 μM. As for the experimental part: The effect of the tested compounds on Topo I and II activities were evaluated by Topo I/II relaxation assays. The reaction products, relaxed DNA could be distinguished from supercoiled DNA by gel electrophoresis and visualized using gel imaging system. Human Topoisomerase IIα activity was detected by measuring the relaxation of supercoiled pBR322 plasmid DNA [22]. […] For inhibition studies, the compounds were pre-incubated with human Topo IIα and DNA for 15 min. Compounds were used at the appropriate concentrations by dissolving in 2% (v/v) DMSO. DMSO didn't show detrimental effect on the enzyme activity at concentration up to 2% (v/v). Reaction mixture was incubated at 37 °C for 30 min and stopped by the addition of 7 mM EDTA. Reaction product was mixed with DNA loading dye and electrophoresed on 1% TAE-Agarose. The gel was stained with ethidium bromide (0.5 μg/mL) for 30 min, destained twice in 1× TAE buffer, and then visualized using a BIO-RAD Gel Doc XR+ System. Etoposide (VP-16) was co-assayed as a positive control.

Data set [2] relates to HepG2 cells. The data set can be described thus: MTT cytotoxicity assay, HepG2. It counts as cell-based, human. Particulars: Homo sapiens, HepG2, 48 h, 48 h exposure. The protocol:
as §1

In data set [3] the test system is HepG2 cells. Also noted: method as in PMID 25537271. The following applies: earlier in vitro cytotoxic assay; read-out: IC50 against HepG2; cited from earlier work.
Data set [4] concerns SMMC-7721 cells. Also noted: method as in PMID 25537271. Particulars: earlier in vitro cytotoxic assay; read-out: IC50 against SMMC-7721; cited from earlier work.

T2 sequence (P11388 whole entry): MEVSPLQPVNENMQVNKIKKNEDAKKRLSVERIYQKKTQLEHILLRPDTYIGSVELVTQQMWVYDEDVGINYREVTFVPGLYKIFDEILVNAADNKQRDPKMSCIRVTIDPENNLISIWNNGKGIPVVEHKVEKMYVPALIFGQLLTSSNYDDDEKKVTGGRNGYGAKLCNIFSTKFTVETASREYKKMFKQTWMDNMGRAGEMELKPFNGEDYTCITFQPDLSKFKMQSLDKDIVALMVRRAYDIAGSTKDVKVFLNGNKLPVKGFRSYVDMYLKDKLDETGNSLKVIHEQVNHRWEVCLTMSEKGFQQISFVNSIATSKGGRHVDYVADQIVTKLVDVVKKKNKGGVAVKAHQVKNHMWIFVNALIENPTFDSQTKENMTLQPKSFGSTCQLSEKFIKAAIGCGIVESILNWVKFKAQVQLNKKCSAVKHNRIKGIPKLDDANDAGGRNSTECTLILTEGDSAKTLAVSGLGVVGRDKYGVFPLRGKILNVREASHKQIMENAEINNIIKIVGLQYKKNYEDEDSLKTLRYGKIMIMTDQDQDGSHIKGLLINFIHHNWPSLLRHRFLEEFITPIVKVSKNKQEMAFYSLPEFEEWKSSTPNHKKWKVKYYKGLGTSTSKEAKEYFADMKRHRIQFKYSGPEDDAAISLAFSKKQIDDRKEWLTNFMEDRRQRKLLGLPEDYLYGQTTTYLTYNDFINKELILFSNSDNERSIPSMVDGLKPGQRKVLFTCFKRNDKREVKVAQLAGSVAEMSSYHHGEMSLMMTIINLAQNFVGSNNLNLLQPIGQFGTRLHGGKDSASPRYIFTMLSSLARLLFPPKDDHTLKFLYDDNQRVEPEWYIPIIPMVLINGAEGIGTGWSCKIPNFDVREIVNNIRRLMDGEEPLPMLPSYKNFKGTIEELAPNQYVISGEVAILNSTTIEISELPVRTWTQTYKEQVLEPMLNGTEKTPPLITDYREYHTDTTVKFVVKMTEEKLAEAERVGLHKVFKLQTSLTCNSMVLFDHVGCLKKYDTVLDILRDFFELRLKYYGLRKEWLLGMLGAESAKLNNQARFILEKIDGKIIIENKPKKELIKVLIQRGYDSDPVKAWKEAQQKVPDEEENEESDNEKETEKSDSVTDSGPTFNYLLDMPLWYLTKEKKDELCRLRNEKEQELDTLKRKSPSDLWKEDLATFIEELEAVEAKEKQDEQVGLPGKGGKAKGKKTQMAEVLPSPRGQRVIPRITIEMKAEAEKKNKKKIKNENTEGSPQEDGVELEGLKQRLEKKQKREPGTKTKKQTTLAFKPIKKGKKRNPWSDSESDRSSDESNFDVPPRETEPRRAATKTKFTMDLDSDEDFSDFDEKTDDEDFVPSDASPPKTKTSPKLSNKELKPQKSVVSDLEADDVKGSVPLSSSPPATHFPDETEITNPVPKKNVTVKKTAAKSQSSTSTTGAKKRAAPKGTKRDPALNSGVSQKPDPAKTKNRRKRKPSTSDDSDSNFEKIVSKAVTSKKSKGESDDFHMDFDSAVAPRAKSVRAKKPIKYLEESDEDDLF

For the molecule `Cc1ccc2[nH]c3c(c2c1)C[C@@]1(C)C(CC[C@]2(C)C1CC=C1C4[C@@H](C)[C@H](C)CC[C@]4(C(=O)NCCCN(C)C)CC[C@]12C)C3(C)C` (stereo partly shown) [5b, N-(3-(Dimethylamino)propyl)-5′-methyl-1′H-ursa-2,12-dieno[3,2-b]indol-28-carboxamide], the IC50 was 1.08 ± 0.22 µM in the data set on SMMC-7721 cells [1]; 20.7 ± 1.73 µM with LO2 cells; 1.26 ± 0.17 µM with HepG2 cells [2]; about 1 µM with HepG2 cells [3]; about 1 µM in the data set on SMMC-7721 cells [4]. Moreover, the inhibition at 20 µM at DNA topoisomerase I (20 μM compound, read-out: Topo I Inhibition (%) 20 μM) came out at 9%; at Human Topoisomerase IIα it was 38.2%. The inhibition at 100 µM came out at 34.2% on DNA topoisomerase I and 72.5% at Human Topoisomerase IIα. For the same molecule, on DNA topoisomerase I (preliminary screening), the “inhibitory activity to Topo I” value is on record as “considerable inhibitory activity”. Moreover, the “inhibitory activity to Topo IIα” value at Human Topoisomerase IIα (preliminary screening) was “considerable inhibitory activity”.

The molecule `Cc1ccc2[nH]c3c(c2c1)C[C@@]1(C)C(CC[C@]2(C)C1CC=C1C4[C@@H](C)[C@H](C)CC[C@]4(C(=O)NCCCNC(=O)[C@]45CC[C@@H](C)[C@H](C)C4C4=CCC6[C@@]7(C)Cc8c([nH]c9ccc(C)cc89)C(C)(C)C7CC[C@@]6(C)[C@]4(C)CC5)CC[C@]12C)C3(C)C` (stereo partly shown) [7b, N,N′-(propane-1,3-diyl)-bis(5′-methyl-1′H-ursa-2,12-dieno[3,2-b]indol-28-carboxamide)] showed a melting point of 276 to 278 °C. For the same molecule, in the data set with SMMC-7721 cells [1], the IC50 was over 50 µM. Moreover, in the data set on LO2 cells, the IC50 was over 50 µM. The inhibition at 100 µM at DNA topoisomerase I amounted to 2%. Besides, at Human Topoisomerase IIα, the inhibition at 20 µM amounted to 9.8% and the inhibition at 100 µM was 17.8%. The molecule further displayed an IC50 with HepG2 cells [2] of over 50 µM.

As for `Cc1ccc2[nH]c3c(c2c1)C[C@@]1(C)C(CC[C@]2(C)C1CC=C1C4[C@@H](C)[C@H](C)CC[C@]4(C(=O)NCCCCNC(=O)[C@]45CC[C@@H](C)[C@H](C)C4C4=CCC6[C@@]7(C)Cc8c([nH]c9ccc(C)cc89)C(C)(C)C7CC[C@@]6(C)[C@]4(C)CC5)CC[C@]12C)C3(C)C` (stereo partly shown) [7c, N,N′-(butane-1,4-diyl)-bis(5′-methyl-1′H-ursa-2,12-dieno[3,2-b]indol-28-carboxamide)], the melting point fell in the range of 255 to 258 °C. The molecule also yielded an IC50 in the data set with SMMC-7721 cells [1] of over 50 µM. The IC50 in the data set on LO2 cells is over 50 µM. For the same molecule, the inhibition at 100 µM at DNA topoisomerase I stood at 0%. Besides, at Human Topoisomerase IIα, the inhibition at 20 µM came out at 8.1% and the inhibition at 100 µM stood at 16.9%. Moreover, in the data set with HepG2 cells [2], the half-maximal inhibitory concentration (IC50) is over 50 µM.

For orientation: IC50 means the midpoint of a concentration-inhibition curve. By inhibition is commonly meant how much of the control response was suppressed. A word on the melting point: it is the temperature, or range, at which the solid turns liquid.

Values taken from article PMC7215373, “Design, Synthesis, and Anticancer Evaluation of Novel Indole Derivatives of Ursolic Acid as Potential Topoisomerase II Inhibitors” (International Journal of Molecular Sciences, 2020).
